Several values for one entry are separate records, joined by “and”; a condition that tells them apart may be missing. Identical values can stand only once.
T1: Solute carrier family 22 member 2 (Homo sapiens, UniProt O15244)
T1 sequence (O15244 whole entry): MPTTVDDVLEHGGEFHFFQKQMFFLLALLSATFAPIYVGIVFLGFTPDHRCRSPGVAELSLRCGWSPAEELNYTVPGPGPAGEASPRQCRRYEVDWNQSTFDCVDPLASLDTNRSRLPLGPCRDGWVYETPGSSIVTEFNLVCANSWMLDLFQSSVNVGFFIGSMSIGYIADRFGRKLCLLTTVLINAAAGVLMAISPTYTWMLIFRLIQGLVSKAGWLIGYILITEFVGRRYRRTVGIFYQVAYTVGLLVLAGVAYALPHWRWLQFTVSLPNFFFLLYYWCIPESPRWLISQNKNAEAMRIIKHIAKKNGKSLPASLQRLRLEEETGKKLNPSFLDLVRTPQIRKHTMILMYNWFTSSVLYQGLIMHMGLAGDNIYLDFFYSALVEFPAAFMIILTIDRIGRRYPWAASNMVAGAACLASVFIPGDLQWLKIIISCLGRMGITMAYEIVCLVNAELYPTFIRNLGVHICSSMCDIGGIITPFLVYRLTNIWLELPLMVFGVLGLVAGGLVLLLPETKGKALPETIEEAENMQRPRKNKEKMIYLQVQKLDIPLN

T2: Solute carrier family 22 member 1 (Homo sapiens, UniProt O15245)
T2 sequence (O15245 whole entry): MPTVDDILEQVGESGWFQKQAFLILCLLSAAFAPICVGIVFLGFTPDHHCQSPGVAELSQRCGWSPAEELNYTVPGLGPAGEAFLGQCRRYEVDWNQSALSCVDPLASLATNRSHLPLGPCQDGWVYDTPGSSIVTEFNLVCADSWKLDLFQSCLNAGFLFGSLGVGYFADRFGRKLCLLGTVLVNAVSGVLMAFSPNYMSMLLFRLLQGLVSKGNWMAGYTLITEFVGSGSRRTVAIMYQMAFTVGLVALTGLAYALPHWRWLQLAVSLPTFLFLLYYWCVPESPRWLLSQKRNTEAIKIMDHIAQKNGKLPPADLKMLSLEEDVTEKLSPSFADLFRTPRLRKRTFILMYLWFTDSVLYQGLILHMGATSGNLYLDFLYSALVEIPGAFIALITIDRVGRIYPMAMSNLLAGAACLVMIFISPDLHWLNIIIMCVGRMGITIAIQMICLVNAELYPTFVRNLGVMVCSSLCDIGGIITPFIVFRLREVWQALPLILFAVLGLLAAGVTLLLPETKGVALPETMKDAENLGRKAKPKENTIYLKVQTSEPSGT


What was measured:
[1] = target: T1, Solute carrier family 22 member 2; experiment: TP_TRANSPORTER: inhibition of TEA uptake in Xenopus laevis oocytes; assay type: functional, cell-based, Oocyte
[2] = target: T2, Solute carrier family 22 member 1; experiment: (§1) TP_TRANSPORTER: uptake in Xenopus laevis oocytes; assay type: functional, cell-based; conditions: oocyte
[3] = substrate: C[N+](C)(C)CCO; experiment: cells, lysate or membranes named
[4] = substrate: CC[N+](CC)(CC)CC; experiment: cells, lysate or membranes named
[5] = substrate: CNC(=O)c1cccnc1; experiment: as §1; assay type: functional, cell-based, Oocyte
[6] = substrate: C=C[C@H]1C[N@@]2CC[C@H]1C[C@H]2[C@H](O)c1ccnc2ccc(OC)cc12; experiment: TP_TRANSPORTER: uptake (electrogenesis) in Xenopus laevis oocytes; assay type: functional, cell-based, Oocyte

Molecule | Ki [1] | Activity [2] | other results
C[n+]1ccc(-c2ccccc2)cc1 | 2400 nM | substrate [not saturable] | 
COc1cc(C(O)CNC(C)C)ccc1O (centres undefined) [METIPRENALINE] | 570000 nM |  | 
CC(C)C(c1ccccc1)C(O)CC[N+]1(C)CCCCC1 (centres undefined) [MEPIPERPHENIDOL BROMIDE] | 4800 nM |  | 
CC[N+](CC)(CC)CC [TETRYLAMMONIUM] |  | substrate [not saturable] | 
CCCCC[N+](CCCCC)(CCCCC)CCCCC [TETRAPENTYLAMMONIUM] | 1500 nM |  | 
CCN1/C(=C/c2ccc3ccccc3[n+]2CC)C=Cc2ccccc21 | 100 nM |  | 
CC[n+]1c(CC2C=C(C)N=C(c3ccccc3)N2C)ccc2ccccc21 (centres undefined) [Cyanine-863] | 210 nM |  | 
CNC(=O)c1cccnc1 [NICOTINYL METHYLAMIDE] | 266000 nM | substrate [not saturable] | 
Solute carrier family 22 member 2 (Homo sapiens) (protein) MPTTVDDVLEHGGEFHFFQKQMFFLLALLSATFAPIYVGIVFLGFTPDHRCRSPGVAELSLRCGWSPAEELNYTVPGPGPAGEASPRQCRRYEVDWNQSTFDCVDPLASLDTNRSRLPLGPCRDGWVYETPGSSIVTEFNLVCANSWMLDLFQSSVNVGFFIGSMSIGYIADRFGRKLCLLTTVLINAAAGVLMAISPTYTWMLIFRLIQGLVSKAGWLIGYILITEFVGRRYRRTVGIFYQVAYTVGLLVLAGVAYALPHWRWLQFTVSLPNFFFLLYYWCIPESPRWLISQNKNAEAMRIIKHIAKKNGKSLPASLQRLRLEEETGKKLNPSFLDLVRTPQIRKHTMILMYNWFTSSVLYQGLIMHMGLAGDNIYLDFFYSALVEFPAAFMIILTIDRIGRRYPWAASNMVAGAACLASVFIPGDLQWLKIIISCLGRMGITMAYEIVCLVNAELYPTFIRNLGVHICSSMCDIGGIITPFLVYRLTNIWLELPLMVFGVLGLVAGGLVLLLPETKGKALPETIEEAENMQRPRKNKEKMIYLQVQKLDIPLN |  |  | Km [3]: 190 µM and 210 µM; Km [4]: 31 µM and 76 µM; Km [5]: 300 µM; Km [6]: 2.6 µM
